Reference: US6737383B1, “Herbicidal oxadiazolidines” (priority 1999, dated 2004)

How the values were obtained:
bedstraw = test: Test B pre/postemergence bedstraw; assay type: in vivo, Galium aparine
Method in brief: (§1)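 Test chemicals in a non-phytotoxic solvent mixture with surfactant were sprayed preemergence onto planted seeds and postemergence onto plants 2 to 18 cm tall (1- to 4-leaf stage). After twelve to sixteen days in a greenhouse, injury was visually rated against untreated controls from 0 (no effect) to 10 (complete control).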

blackgrass = test: Test B pre/postemergence blackgrass; assay type: in vivo, Alopecurus myosuroides
Method in brief: as §1

surinam grass = test: Test B pre/postemergence surinam grass; assay type: in vivo, Brachiaria decumbens
Method in brief: as §1

corn = test: Test B pre/postemergence corn; assay type: in vivo, Zea mays
Method in brief: as §1

crabgrass = test: Test B pre/postemergence crabgrass; assay type: in vivo, Digitaria sanguinalis
Method in brief: as §1

giant foxtail = test: Test B pre/postemergence giant foxtail; assay type: in vivo, Setaria faberii
Method in brief: as §1

morningglory = test: Test B pre/postemergence morningglory; assay type: in vivo, Ipomoea hederacea
Method in brief: as §1

pigweed = test: Test B pre/postemergence pigweed; assay type: in vivo, Amaranthus retroflexus
Method in brief: as §1

rape = test: Test B pre/postemergence rape; assay type: in vivo, Brassica napus
Method in brief: as §1

soybean = test: Test B pre/postemergence soybean; assay type: in vivo, Glycine max
Method in brief: as §1

velvetleaf = test: Test B pre/postemergence velvetleaf; assay type: in vivo, Abutilon theophrasti
Method in brief: as §1

wheat = test: Test B pre/postemergence wheat; assay type: in vivo, Triticum aestivum
Method in brief: as §1

wild oat = test: Test B pre/postemergence wild oat; assay type: in vivo, Avena fatua
Method in brief: as §1

purple nutsedge = test: Test B pre/postemergence purple nutsedge; assay type: in vivo, Cyperus rotundus
Method in brief: as §1

rice = test: Test B flood test rice; assay type: in vivo, Oryza sativa
Method in brief: (§2)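 Plants were grown to the 2-leaf stage before treatment with test chemical, then held in a greenhouse for twelve to sixteen days. Injury was visually rated against untreated controls on a 0–10 scale, where 0 is no effect and 10 is complete control.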

duck salad = test: Test B flood test duck salad; assay type: in vivo, Heteranthera limosa
Method in brief: as §2

[1] = Preemergence, Rate 62 g/ha, scale of 0 to 10 where 0 is no effect and 10 is complete control
[2] = Preemergence, Rate 250 g/ha, scale of 0 to 10 where 0 is no effect and 10 is complete control
[3] = Preemergence, Rate 500 g/ha, scale of 0 to 10 where 0 is no effect and 10 is complete control
[4] = Rate 62 g/ha, Postemergence, scale 0 to 10 (0 no effect, 10 complete control)
[5] = Rate 125 g/ha, Postemergence, scale of 0 to 10 where 0 is no effect and 10 is complete control
[6] = Rate 250 g/ha, Postemergence, scale of 0 to 10 where 0 is no effect and 10 is complete control
[7] = Rate 500 g/ha, Postemergence, scale 0 to 10, 0 no effect, 10 complete control
[8] = Rate 62 g/ha, headed Pre-emergence (flood test species), scale 0 to 10 (0 no effect, 10 complete control)
[9] = Rate 125 g/ha, Pre-emergence, flood test species, scale 0 to 10 where 0 is no effect and 10 is complete control
[10] = Rate 250 g/ha, Pre-emergence, flood-test species, scale 0 to 10, 0 is no effect, 10 is complete control
[11] = Rate 500 g/ha, Pre-emergence, flood test species, scale 0 to 10 (0 no effect, 10 complete control)

CCN(C(=O)n1oc(=O)n(Cc2ccco2)c1=O)C1CCCCC1 [Compound 312]
2: Soybean plant response rating (soybean; [4]) | Soybean plant response rating (soybean; [5])
3: Plant response rating, Soybean (soybean; [6])
0: Bedstraw plant response rating (bedstraw; [1]) | Bedstraw plant response rating (0 to 10 scale) (bedstraw; Preemergence, Rate 125 g/ha) | Bedstraw plant response rating (bedstraw; [2]) | Bedstraw plant response rating (bedstraw; [3]) | Bedstraw plant response rating (bedstraw; [4]) | Bedstraw plant response rating (bedstraw; [5]) | Plant response rating, Bedstraw (bedstraw; [6]) | Blackgrass plant response rating (blackgrass; [1]) | Blackgrass plant response rating (0 to 10 scale) (blackgrass; Preemergence, Rate 125 g/ha) | Blackgrass plant response rating (blackgrass; [2]) | Blackgrass plant response rating (blackgrass; [3]) | Blackgrass plant response rating (blackgrass; [4]) | Blackgrass plant response rating (blackgrass; [5]) | Plant response rating, Blackgrass (blackgrass; [6]) | Blackgrass plant response rating (blackgrass; [7]) | B. signalgrass plant response rating (surinam grass; [1]) | B. signalgrass plant response rating (0 to 10 scale, 0 is no effect, 10 is complete control) (surinam grass; Preemergence, Rate 125 g/ha) | B. signalgrass plant response rating (surinam grass; [2]) | B. signalgrass plant response rating (surinam grass; [3]) | B. signalgrass plant response rating (surinam grass; [4]) | B. signalgrass plant response rating (surinam grass; [5]) | Plant response rating, B. signalgrass (surinam grass; [6]) | B. signalgrass plant response rating (surinam grass; [7]) | Corn plant response rating (corn; [1]) | Corn plant response rating (0 to 10 scale) (corn; Preemergence, Rate 125 g/ha) | Corn plant response rating (corn; [2]) | Corn plant response rating (corn; [3]) | Corn plant response rating (corn; [4]) | Corn plant response rating (corn; [5]) | Plant response rating, Corn (corn; [6]) | Corn plant response rating (corn; [7]) | Crabgrass plant response rating (crabgrass; [1]) | Crabgrass plant response rating (0 to 10 scale) (crabgrass; Preemergence, Rate 125 g/ha) | Crabgrass plant response rating (crabgrass; [2]) | Crabgrass plant response rating (crabgrass; [3]) | Crabgrass plant response rating (crabgrass; [4]) | Crabgrass plant response rating (crabgrass; [5]) | Plant response rating, Crabgrass (crabgrass; [6]) | Giant foxtail plant response rating (giant foxtail; [1]) | Giant foxtail plant response rating (0 to 10 scale) (giant foxtail; Preemergence, Rate 125 g/ha) | Giant foxtail plant response rating (giant foxtail; [2]) | Giant foxtail plant response rating (giant foxtail; [3]) | Giant foxtail plant response rating (giant foxtail; [4]) | Giant foxtail plant response rating (giant foxtail; [5]) | Plant response rating, Giant foxtail (giant foxtail; [6]) | Morningglory plant response rating (morningglory; [1]) | Morningglory plant response rating (0 to 10 scale) (morningglory; Preemergence, Rate 125 g/ha) | Morningglory plant response rating (morningglory; [2]) | Morningglory plant response rating (morningglory; [3]) | Morningglory plant response rating (morningglory; [4]) | Morningglory plant response rating (morningglory; [5]) | Plant response rating, Morningglory (morningglory; [6]) | Redroot pigweed plant response rating (pigweed; [1]) | Redroot pigweed plant response rating (0 to 10 scale) (pigweed; Preemergence, Rate 125 g/ha) | Redroot pigweed plant response rating (pigweed; [2]) | Redroot pigweed plant response rating (pigweed; [3]) | Redroot pigweed plant response rating (pigweed; [4]) | Redroot pigweed plant response rating (pigweed; [5]) | Plant response rating, Redroot pigweed (pigweed; [6]) | Rape plant response rating (rape; [1]) | Rape plant response rating (0 to 10 scale) (rape; Preemergence, Rate 125 g/ha) | Rape plant response rating (rape; [2]) | Rape plant response rating (rape; [3]) | Rape plant response rating (rape; [4]) | Rape plant response rating (rape; [5]) | Plant response rating, Rape (rape; [6]) | Soybean plant response rating (soybean; [1]) | Soybean plant response rating (0 to 10 scale) (soybean; Preemergence, Rate 125 g/ha) | Soybean plant response rating (soybean; [2]) | Soybean plant response rating (soybean; [3]) | Velvetleaf plant response rating (velvetleaf; [1]) | Velvetleaf plant response rating (0 to 10 scale) (velvetleaf; Preemergence, Rate 125 g/ha) | Velvetleaf plant response rating (velvetleaf; [2]) | Velvetleaf plant response rating (velvetleaf; [3]) | Velvetleaf plant response rating (velvetleaf; [4]) | Velvetleaf plant response rating (velvetleaf; [5]) | Plant response rating, Velvetleaf (velvetleaf; [6]) | Wheat plant response rating (wheat; [1]) | Wheat plant response rating (0 to 10 scale) (wheat; Preemergence, Rate 125 g/ha) | Wheat plant response rating (wheat; [2]) | Wheat plant response rating (wheat; [3]) | Wheat plant response rating (wheat; [4]) | Wheat plant response rating (wheat; [5]) | Plant response rating, Wheat (wheat; [6]) | Wild oats plant response rating (wild oat; [1]) | Wild oats plant response rating (0 to 10 scale) (wild oat; Preemergence, Rate 125 g/ha) | Wild oats plant response rating (wild oat; [2]) | Wild oats plant response rating (wild oat; [3]) | Wild oats plant response rating (wild oat; [4]) | Wild oats plant response rating (wild oat; [5]) | Plant response rating, Wild oats (wild oat; [6]) | Nutsedge plant response rating (purple nutsedge; [1]) | Nutsedge plant response rating (0 to 10 scale) (purple nutsedge; Preemergence, Rate 125 g/ha) | Nutsedge plant response rating (purple nutsedge; [2]) | Nutsedge plant response rating (purple nutsedge; [3]) | Nutsedge plant response rating (purple nutsedge; [4]) | Nutsedge plant response rating (purple nutsedge; [5]) | Plant response rating, Nutsedge (purple nutsedge; [6]) | Rice plant response rating (rice; [8]) | Rice plant response rating (rice; [9]) | Rice plant response rating (rice; [10]) | Rice plant response rating (rice; [11]) | Ducksalad plant response rating (duck salad; [8]) | Ducksalad plant response rating (duck salad; [9]) | Ducksalad plant response rating (duck salad; [10]) | Ducksalad plant response rating (duck salad; [11])
